The values that follow come from ChEMBL document CHEMBL1201862, “PubChem BioAssay data set” (2004).

Among the test systems are HOP-62; UO-31; OVCAR-4; MOLT-4; LOX IMVI; CCRF-CEM; SF-539; K562; UACC-62; SN12C; ACHN; SK-MEL-2; EKVX; NCI-H522; MCF7; OVCAR-3; SK-MEL-28; A498; PC-3; MDA-N.
Assay in all cases: growth of human tumour cells (NCI), 48 h

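In this assay, cells in 96-well plates receive the compound at five concentrations for 48 hours. Endpoints are linearly interpolated between the surrounding concentrations. The concentration for 50% growth inhibition is given as GI50.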 Active and inactive are the calls of the source. Rule as the data show it: active = GI50 up to about 1.1 µM and inactive = higher. Bridge positions count the residues as written; N and C are the ends. Square brackets hold non-standard residues; d marks the D form. Peptide text beside a SMILES is read from it. * marks the point of attachment. Cya = N[CH](CS(=O)(=O)O)C(=O)O; X49 = CC(C)CCCCCCCC(O)CC(=O)*; GABA = NCCCC(=O)O

Consider `CC(C)C1CCC(=O)CC1CCCCC1CC(=O)CC1O[Si](C)(C)C(C)(C)C` (stereo not given), for which the GI50 with HOP-62 is 7.06 µM (inactive); in the assay on UO-31 it was 7.66 µM (inactive); in the assay on OVCAR-4, 12.7 µM (inactive); with MOLT-4 it was 1.89 µM (inactive); with LOX IMVI, 2.84 µM (inactive); in the assay with CCRF-CEM, 0.955 µM (active). Moreover, the GI50 is 4.66 µM (inactive) with SF-539; 2.76 µM (inactive) with K562; 4.45 µM (inactive) with UACC-62; 5.5 µM (inactive) in the assay with SN12C; 4.3 µM (inactive) in the assay on ACHN; 6.44 µM (inactive) in the assay with SK-MEL-2. Also, the GI50 was 15.7 µM (inactive) in the assay with EKVX; 2.1 µM (inactive) in the assay with NCI-H522; 4.12 µM (inactive) in the assay with MCF7; 14.4 µM (inactive) with OVCAR-3; 5.92 µM (inactive) in the assay with SK-MEL-28; 8.09 µM (inactive) with A498. Besides, the GI50 is 7.53 µM (inactive) in the assay with PC-3 and 4.16 µM (inactive) in the assay with MDA-N.

For `CN1C(=O)c2c(c3c4ccccc4n(C)c3c3c2c2ccccc2n3C)C1=O`, the GI50 in the assay with HOP-62, with UO-31, in the assay with OVCAR-4, in the assay on MOLT-4, in the assay with LOX IMVI and with CCRF-CEM was > 100 µM (inactive) each time. In addition, the GI50 with SF-539, in the assay on K562, with UACC-62, in the assay on SN12C, in the assay on ACHN and with SK-MEL-2 was > 100 µM (inactive) throughout. Moreover, the GI50 is > 100 µM (inactive) with EKVX; > 100 µM (inactive) in the assay with NCI-H522; > 100 µM (inactive) in the assay with MCF7; 58.6 µM (inactive) in the assay on OVCAR-3; > 100 µM (inactive) in the assay on SK-MEL-28; > 100 µM (inactive) in the assay with A498. For the same compound, the GI50 in the assay on PC-3 and in the assay with MDA-N was > 100 µM (inactive) throughout.

Regarding `CC(C)CCCCCCCC(O)CC(=O)NC(CS(=O)(=O)O)C(=O)NC(CC(C)C)C(=O)NCCCC(=O)NC(Cc1c[nH]cn1)C(=O)NC(C)C(=O)NC1C(=O)NC(C(C)O)C(=O)NC(Cc2c[nH]cn2)C(=O)NC(C)C(=O)NC(C(C)O)C(=O)OC1C` (stereo not given) (X49-[Cya]L[GABA]HATTHAT; ester 6-C; configuration not given here), the GI50 in the assay with HOP-62, with UO-31, in the assay on OVCAR-4, in the assay with MOLT-4, with LOX IMVI and in the assay with CCRF-CEM was > 25 µM (inactive) in each case. Moreover, the GI50 with SF-539, in the assay on K562, with UACC-62, in the assay on SN12C, in the assay with ACHN and in the assay with SK-MEL-2 was > 25 µM (inactive) throughout. Further, the GI50 with EKVX, in the assay on NCI-H522, with MCF7, in the assay on OVCAR-3, in the assay with SK-MEL-28 and in the assay with A498 was > 25 µM (inactive) each time. Further, the GI50 with PC-3 and in the assay with MDA-N was > 25 µM (inactive) each time.

On to `Cc1nc(O)nc(N(CCO)/N=C/c2ccc(Cl)cc2)c1C(=O)Nc1ccc(Cl)cc1`, for which the GI50 in the assay on HOP-62 was 59.7 µM (inactive); in the assay with UO-31, > 100 µM (inactive); in the assay with OVCAR-4 it was > 100 µM (inactive); in the assay with MOLT-4, > 100 µM (inactive); with LOX IMVI it was > 100 µM (inactive); in the assay on CCRF-CEM it was > 100 µM (inactive). The GI50 was > 100 µM (inactive) with SF-539; > 100 µM (inactive) in the assay with K562; > 100 µM (inactive) with UACC-62; > 100 µM (inactive) in the assay on SN12C; > 100 µM (inactive) with ACHN; 34.4 µM (inactive) with SK-MEL-2. Moreover, the GI50 in the assay with EKVX, in the assay with NCI-H522, with MCF7, in the assay on OVCAR-3, with SK-MEL-28 and in the assay with A498 was > 100 µM (inactive) throughout. Further, the GI50 with PC-3 and in the assay with MDA-N was > 100 µM (inactive) each time.

Turning to `CSc1ccc(NC(=O)C2CCCCC2C(=O)O)cc1` (stereo not given), the GI50 is > 100 µM (inactive) in the assay on HOP-62; > 100 µM (inactive) in the assay on UO-31; > 100 µM (inactive) in the assay on OVCAR-4; 38.6 µM (inactive) with MOLT-4; > 100 µM (inactive) in the assay on LOX IMVI; > 100 µM (inactive) in the assay on CCRF-CEM. In addition, the GI50 in the assay with SF-539, in the assay on K562, in the assay with UACC-62, in the assay on SN12C, in the assay on ACHN and in the assay with SK-MEL-2 was > 100 µM (inactive) each time. The GI50 in the assay with EKVX, in the assay on NCI-H522, with MCF7, in the assay with OVCAR-3, with SK-MEL-28 and with A498 was > 100 µM (inactive) in each case. Besides, the GI50 in the assay on PC-3 and in the assay on MDA-N was > 100 µM (inactive) in each case.

`C=CCNC1=C2C[C@@H](C)C[C@@H](OC)C(OC(=O)CCCN(C)C)[C@H](C)/C=C(\C)[C@@H](OC(N)=O)[C@H](OC)/C=C\C=C(/C)C(=O)NC(=CC1=O)C2=O` (stereo not given in full): the GI50 with HOP-62 was 9.95 µM (inactive); in the assay on UO-31, 13.6 µM (inactive); with OVCAR-4, 9.14 µM (inactive); with MOLT-4, 5.75 µM (inactive); in the assay with LOX IMVI it was 10.1 µM (inactive); with CCRF-CEM, 8.95 µM (inactive). For the same compound, the GI50 was 6.73 µM (inactive) in the assay with SF-539; 4.06 µM (inactive) with K562; 12.4 µM (inactive) with UACC-62; 2.42 µM (inactive) with SN12C; 7.48 µM (inactive) with ACHN; 12.6 µM (inactive) in the assay with SK-MEL-2. The GI50 was 13.1 µM (inactive) in the assay on EKVX; 8.07 µM (inactive) with NCI-H522; 2.02 µM (inactive) in the assay on MCF7; 3.3 µM (inactive) in the assay with OVCAR-3; 13.7 µM (inactive) in the assay with SK-MEL-28; 13.8 µM (inactive) in the assay on A498. In addition, the GI50 in the assay on PC-3 was 4.98 µM (inactive); in the assay on MDA-N, 7.26 µM (inactive).

As for `COC(=O)c1ccccc1C1CN=NC12Cc1cc(C)ccc1C2=O` (stereo not given), the GI50 is > 100 µM (inactive) with HOP-62; 52.4 µM (inactive) in the assay with UO-31; > 100 µM (inactive) in the assay with OVCAR-4; > 100 µM (inactive) in the assay with MOLT-4; 36.4 µM (inactive) with LOX IMVI; > 100 µM (inactive) with CCRF-CEM. In addition, the GI50 in the assay with SF-539 is > 100 µM (inactive); with K562, 86.9 µM (inactive); with UACC-62, > 100 µM (inactive); in the assay on SN12C it was > 100 µM (inactive); with ACHN it was > 100 µM (inactive); in the assay on SK-MEL-2 it was > 100 µM (inactive). The GI50 with EKVX was > 100 µM (inactive); in the assay with NCI-H522, 63.8 µM (inactive); with MCF7, 3.58 µM (inactive); in the assay on OVCAR-3, 57 µM (inactive); with SK-MEL-28 it was > 100 µM (inactive); in the assay with A498, > 100 µM (inactive). Further, the GI50 was 94.4 µM (inactive) with PC-3 and 72.9 µM (inactive) in the assay with MDA-N.

Consider `[BH3-][P+]1(CC[P@@+]([BH3-])(c2ccccc2)c2ccccc2OC)[C@@H](C)[C@@H](O)[C@H](O)[C@@H]1C` (stereo not given in full), for which the GI50 in the assay on HOP-62 was 16.9 µM (inactive); in the assay with UO-31, 10.1 µM (inactive); in the assay with OVCAR-4 it was 16.8 µM (inactive); with MOLT-4 it was 20.4 µM (inactive); in the assay on LOX IMVI, 2.44 µM (inactive); in the assay on CCRF-CEM, 24.2 µM (inactive). Further, the GI50 in the assay with SF-539 was 16.5 µM (inactive); in the assay on K562, 26.1 µM (inactive); with UACC-62, 14.8 µM (inactive); in the assay with SN12C, 13.4 µM (inactive); with ACHN it was 17.6 µM (inactive); in the assay on SK-MEL-2, 15.7 µM (inactive). Besides, the GI50 in the assay on EKVX was 12.4 µM (inactive); in the assay with NCI-H522, 12.4 µM (inactive); in the assay with MCF7, 18.2 µM (inactive); in the assay with OVCAR-3, 16.1 µM (inactive); in the assay on SK-MEL-28, 17.9 µM (inactive); in the assay with A498, 18 µM (inactive). Besides, the results for the GI50 in the assay with PC-3 and in the assay on MDA-N were 15 µM (inactive) and 16 µM (inactive), respectively.

`CSc1nc(Cl)c2c(n1)Sc1nc3cc4c(cc3n1C2O)OCCO4` (stereo not given): the GI50 with HOP-62 is 0.419 µM (active); in the assay with UO-31 it was 0.112 µM (active); in the assay with OVCAR-4, 14.6 µM (inactive); in the assay with MOLT-4, 0.0348 µM (active); in the assay on LOX IMVI, < 0.0162 µM (active); in the assay on CCRF-CEM, 0.0246 µM (active). Also, the GI50 in the assay on SF-539 was 0.0247 µM (active); in the assay on K562 it was 0.0318 µM (active); in the assay on UACC-62, 0.125 µM (active); in the assay on SN12C it was 0.526 µM (active); in the assay on ACHN, 0.131 µM (active); with SK-MEL-2, 0.923 µM (active). In addition, the GI50 with EKVX was 15.2 µM (inactive); in the assay with NCI-H522 it was 0.0382 µM (active); in the assay with MCF7 it was 0.053 µM (active); in the assay with OVCAR-3, 0.137 µM (active); in the assay on SK-MEL-28, 0.501 µM (active); with A498 it was 0.708 µM (active). For the same compound, the values for the GI50 with PC-3 and in the assay with MDA-N were 0.045 µM (active) and 0.0308 µM (active), respectively.

With `CCCCCCOc1ccc(C(=O)NOCc2ccccc2)cc1`, the GI50 with HOP-62 is > 100 µM (inactive); in the assay on UO-31 it was > 100 µM (inactive); with OVCAR-4, > 100 µM (inactive); in the assay with MOLT-4 it was 79.6 µM (inactive); in the assay with LOX IMVI it was > 100 µM (inactive); in the assay on CCRF-CEM, 90.2 µM (inactive). In addition, the GI50 with SF-539 was > 100 µM (inactive); in the assay on K562, 35.6 µM (inactive); with UACC-62, > 100 µM (inactive); in the assay on SN12C it was > 100 µM (inactive); with ACHN, > 100 µM (inactive); in the assay on SK-MEL-2 it was > 100 µM (inactive). For the same compound, the GI50 in the assay with EKVX, in the assay on NCI-H522, with MCF7, in the assay on OVCAR-3, with SK-MEL-28 and with A498 was > 100 µM (inactive) each time. Further, the GI50 was > 100 µM (inactive) in the assay with PC-3 and 45.8 µM (inactive) in the assay on MDA-N.
